The text below walks through data of patent publication US20030144148A1, “Method for plant-protection treatment by leaf absorption, using a combination between an active ingredient and a modified oil and novel combination for using said method” (SOCIETE D'EXPLOITATION DE PRODUITS POUR LES INDUSTRIES …, priority 1998, published 2003).

For data set [1], the system named is barley (Hordeum vulgare) leaves. Kind of data set: Leaf penetration of 2,4-D, alone or in combination with modified oils. The class given is in vivo. As to conditions: percentage of 2,4-D penetrated into barley leaf. How it is done:
(§1) Ten drops are applied to the adaxial surface of the first leaf. After 0, 4, 6, 24 or 72 hours, the product which has not penetrated is washed with 0.5 ml of acetone and the radioactivity measured by liquid scintillation. The radioactivity present in the treated leaf in the rest of the plant is determined in the carbon dioxide obtained after burning the tissue.
The penetration into barley (Hordeum vulgare) leaves, of 2,4-D or (2,4-dichlorophenoxy) acetic acid, which is a herbicide with a highly dissociated carboxylic acid function, alone or in combination with modified oils, was compared according to the procedure described in the preceding paragraph.

The test system is the same in data set [2]. Briefly: Leaf penetration of carbon-14 labeled phenmedipham, alone or in combination with modified oils. The class given is in vivo. More on the design: dose or concentration left out as unconfirmed. As to conditions: percentage of phenmedipham penetrated into barley leaf, 72 hours after application in acetone. How it is done: as §1

`O=C(O)COc1ccc(Cl)cc1Cl` [2,4-D ALONE, (2,4-dichlorophenoxy) acetic acid]: the “LEAF PENETRATION AT: 24 HOURS” value in data set [1] (24 hours after application) was determined as 10%. In data set [1] (72 hours after application), the “LEAF PENETRATION AT: 72 HOURS” value was 15%.
As for `COC(=O)Nc1cccc(OC(=O)Nc2cccc(C)c2)c1` [PH[…], 3-[(methoxycarbonyl)amino] phenyl (3-methylphenyl)-carbamate], the “LEAF PENETRATION AT: 72 HOURS” value in data set [2] is less than 10%.
